Measured values from patent US5281585A, “Fibrinogen receptor antagonists for inhibiting aggregation of blood platelets” (Merck & Co., Inc., priority 1992, dated 1994).

Key:
platelet aggregation [1] = test: In vivo activity in dogs: ex vivo platelet aggregation, intravenous infusion; parameters: species or system dog; settings: 10 μg/kg/min and 25 μg/kg/min
Method: (§1) The following protocols were used to determine in vivo activity in dogs of fibrinogen receptor antagonists of the present invention.
(§2) A mongrel dog of either sex (weighing 7.5 to 11.5 kg) is comfortably positioned in a nylon sling which exposes the legs and keeps the dog stationary. Five ml of blood is withdrawn from either saphenous or cephalic veins with a plastic syringe containing 0.5 ml of 3.8% citrate via a 19-gauge butterfly. An additional I ml of citrated blood is taken to measure whole blood platelet counts. Ex vivo platelet aggregations are done with the agonists ADP (10 μM) and collagen (10 μg/ml) both primed with 1μM epinephrine. Platelet-rich plasma (PRP) is obtained by centrifuging the blood at 150 x g for 5 minutes. Platelet counts are adjusted to 200,000/mm^3 with platelet-poor plasma.
For the intravenous infusion, blood samples for ex vivo platelet aggregation are taken at the following time points: 0,30, 45, 60, 90 and 120 min into the infusion and 2,5, 15, 30, 60, 90, 120, 180, 240, 300, 360, and 420 minutes after the infusion stops. At each time point, the remaining platelet-poor plasma is saved and frozen for drug levels. The drug is infused for 120 minutes at a constant rate of 0.1 ml/min.
(§3) In the oral and intravenous groups, blood collection times are recorded at each time point in order to determine drug plasma levels.

platelet aggregation [2] = test: In vivo activity in dogs: ex vivo platelet aggregation, oral administration; parameters: species or system dog; settings: single oral administration of 2 mg/kg, for a period of eight hours
Method: as §1, §2
Oral administration of a drug is done either as a gelatin capsule or a gastric lavage. For the gastric lavage method, 5 ml of the drug solution is administered to the dog through a feeding tube. Blood samples for ex vivo platelet aggregation are taken at the following time points: 0,20, 40, 70, 90, 150, 200, 250, 300, 350, 480 min. 24 hr. 30 hr, and 48 hr. At each time point, the remaining platelet-poor plasma is saved and frozen for drug levels. […]
as §3

Compound: O=C(O)CCNC(=O)CN1CCCC(CCC2CCNCC2)C1=O (stereo not drawn)
- Inhibition of platelet aggregation (% of control) during infusion (platelet aggregation [1]; during infusion): nearly complete
- Inhibition of platelet aggregation (% of control) after infusion cessation (platelet aggregation [1]; for several hours after infusion cessation): partial inhibition
- % Inhibition of platelet aggregation (platelet aggregation [2]): greater than 50%
